Consider one compound from paper PMC10562414, “GLP-1R signaling neighborhoods associate with the susceptibility to adverse drug reactions of incretin mimetics” (Nature Communications, 2023).

The test system of the assay is GLP-1R-expressing HEK293 cells + Dyngo-4A (phosphoproteome). The experiment in a line: Phosphoproteomics, GLP-1R-transfected cells with internalization inhibitor Dyngo-4A, 30 min. It counts as cell-based, human. Particulars: 50 μM, 30 min preincubation. The method, then: P values were calculated by a two-sided unpaired t-test.
HEK293 cells (350,000 cells/mL) were transfected in suspension using 3 μg of linear PEI (MW 25,000) per 1 μg of plasmid DNA and seeded onto poly-D-lysine-coated 60 mm dishes at a density of 1,750,000 cells per dish. After a 24-h incubation, cells were washed twice with PBS and placed in starvation media (DMEM with penicillin/streptomycin). After a 48-h incubation, cells were washed twice with HBSS and maintained in the same buffer. […] Cell extracts were prepared as previously described[64]–[66]. In short, 200 μL of the lysis buffer preheated at 95 °C (4% sodium dodecyl sulfate in 50 mM Tris adjusted to pH 8.5) was added to the cells. The samples were then denatured at 95 °C for 10 min, placed on ice and then sonicated using a probe sonicator (3 sec on, 3 sec off pulse, 1 min, 30% amplitude) (Branson). Lysate protein concentration was determined using the Pierce bicinchoninic acid assay kit (Thermo Fisher Scientific) according to the manufacturer’s instructions. The lysates were reduced using 5 mM dithiothreitol for 1 h at room temperature and alkylated using 15 mM iodoacetamide for 1 h at room temperature in the dark. Proteins were precipitated and digested on beads using MagReSyn Amine magnetic beads (ReSyn Biosciences) according to the manufacturer’s instructions. Protein digestion was conducted overnight at 37 °C with lysyl endopeptidase (LysC, Wako) (1:150 LysC/protein, w/w) and trypsin (1:300 trypsin/protein, w/w). 20% TFA, 2 M glycolic acid in 80% ACN were added to the samples at a 1:1 ratio for phosphopeptide enrichment using MagReSyn TiO2 magnetic beads (ReSyn Biosciences) according to the manufacturer’s instructions. The enriched phosphopeptides were dried overnight in a SpeedVac, resuspended into 5% formic acid (FA), desalted using StageTip (Thermo Fisher Scientific) according to the manufacturer’s instructions and dried in a SpeedVac. The experiment was performed in biological triplicates.
All parameters and settings regarding the acquisition of the proteomics data can be found in Supplementary Data 11, 12. For data acquisition, the instrument was set to peptide mode, with a trapping pressure set as low (2mTorr). An EASY-Spray Source (Thermo Fisher Scientific) was used and the column temperature was maintained with the integrated, temperature-controlled heater at 55 °C throughout the experiment. For the data presented in Fig. 5d, the column was heated at 50 °C following the manufacturer’s instructions (IonOpticks).
Acquired raw files were converted to mzML format by MSConvert (version 3.0.21258)[67] applying peak picking of the mass spectra with the vendor-provided algorithm (Thermo Fisher Scientific). The mzML files were analyzed using the FragPipe GUI v18 for both library and DIA search. […] Trypsin with up to 2 missed cleavages was set as digestion enzyme, oxidation of methionine, acetylation of the N-terminus and phosphorylation on serine, threonine and tyrosine (maximal occurrence was set to three) were set as variable modifications. Carbamidomethylation of cysteine residues was set as a fixed modification. Peptide length was restricted to 7 to 50 amino acids, and 500 to 5000 Da. The precursor tolerance was set to ±20 ppm, fragment mass tolerance to 20 ppm and MSBooster was enabled. The resulting peptide-spectrum matches were adjusted to a 1% false discovery rate with Percolator[69] as part of the Philosopher toolkit (v4.4)[70] and converted to a spectra library. DIA files were analyzed by DIA-NN 1.8.1[71], [72] using the previously generated library and monitor-command mode. Peptide quantification was performed based on the fragment elution profiles from the MS2 level (area under the curve).
All further data processing was performed in R (version 4.2.1). Only phosphopeptides with a localization score of at least 0.75 were considered for further analysis. […]

On to `O=C(N/N=C/c1cc(O)c(O)cc1O)c1cc2ccccc2cc1O` [Dyngo-4A], for which the “effect on magnitude of agonist-induced phosphorylation events” value is reported as “affected”.
